Reference: ChEMBL document CHEMBL2375251, “Anticancer activity of novel hybrid molecules containing 5-benzylidene thiazolidine-2,4-dione” (Eur J Med Chem, 2013)
Activity calls are given as the source filed them.

Legend:
[1] = test system: MOLT-3; experiment: Induction of apoptosis in human MOLT3 cells assessed as caspase 3/7-mediated DEVD-pNA cleavage at 1 uM after 6 hrs by colorimetric assay; format: functional, cell-based
[2] = test system: MOLT-3; experiment: Induction of apoptosis in human MOLT3 cells assessed as procaspase-9 activation at 1 uM after 6 hrs by Western blot analysis; format: functional, cell-based
[3] = test system: U-937; experiment: Cytotoxicity against human U937 cells after 4 hrs by MTT assay; format: functional, cell-based; settings: for IC50: U-937, 4 h
[4] = test system: U-937; experiment: Induction of apoptosis in human U937 cells assessed as appearance of apoptotic bodies at 1 uM after 6 hrs by Hoechst 33258 staining based fluorescence microscopy; format: functional, cell-based
[5] = test system: MOLT-3; experiment: Induction of apoptosis in human MOLT3 cells assessed as cytochrome c release at 1 uM after 6 hrs by Western blot analysis; format: functional, cell-based
[6] = test system: U-937; experiment: Induction of apoptosis in human U937 cells assessed as procaspase-7 activation at 1 uM after 6 hrs by Western blot analysis; format: functional, cell-based
[7] = test system: MOLT-3; experiment: Induction of apoptosis in human MOLT3 cells assessed as caspase 8-mediated IETD-pNA cleavage at 1 uM after 6 hrs by colorimetric assay; format: functional, cell-based
[8] = test system: U-937; experiment: Induction of apoptosis in human U937 cells assessed as caspase-3-mediated PARP hydrolysis at 1 uM after 6 hrs by Western blot analysis; format: functional, cell-based
[9] = test system: U-937; experiment: Induction of apoptosis in human U937 cells assessed as chromatin hydrolysis at 1 uM after 6 hrs by agarose gel electrophoresis; format: functional, cell-based
[10] = test system: HL-60; experiment: Induction of apoptosis in human HL60 cells assessed as caspase 3/7-mediated DEVD-pNA cleavage at 1 uM after 6 hrs by colorimetric assay relative to control; format: functional
[11] = test system: HL-60; experiment: Induction of apoptosis in human HL60 cells assessed as chromatin hydrolysis at 1 uM after 6 hrs by agarose gel electrophoresis; format: functional, cell-based
[12] = test system: HL-60; experiment: Induction of apoptosis in human HL60 cells assessed as hypodiploid DNA content at 3 uM after 6 hrs by propidium iodide staining-based flow cytometry relative to control; format: functional
[13] = test system: HL-60; experiment: Induction of apoptosis in human HL60 cells assessed as caspase-3-mediated PARP hydrolysis at 1 uM after 6 hrs by Western blot analysis; format: functional, cell-based
[14] = test system: U-937; experiment: Induction of apoptosis in human U937 cells assessed as hypodiploid DNA content at 3 uM after 6 hrs by propidium iodide staining-based flow cytometry relative to control; format: functional
[15] = test system: U-937; experiment: Induction of apoptosis in human U937 cells assessed as caspase9-mediated LEHD-pNA cleavage at 1 uM after 6 hrs by colorimetric assay; format: functional, cell-based
[16] = test system: HL-60; experiment: Induction of apoptosis in human HL60 cells assessed as procaspase-8 activation at 1 uM after 6 hrs by Western blot analysis; format: functional, cell-based
[17] = test system: MOLT-3; experiment: Induction of apoptosis in human MOLT3 cells assessed as procaspase-7 activation at 1 uM after 6 hrs by Western blot analysis; format: functional, cell-based
[18] = test system: HL-60; experiment: Induction of apoptosis in human HL60 cells assessed as procaspase-3 activation at 1 uM after 6 hrs by Western blot analysis; format: functional, cell-based
[19] = test system: L1210; experiment: Cytotoxicity against mouse L1210 cells after 2 days by Coulter counter analysis; format: functional, cell-based; settings: L1210, 48 h
[20] = test system: HL-60; experiment: Induction of apoptosis in human HL60 cells assessed as caspase 3/7-mediated DEVD-pNA cleavage at 1 uM after 6 hrs by colorimetric assay; format: functional, cell-based
[21] = test system: U-937; experiment: Induction of apoptosis in human U937 cells assessed as caspase 3/7-mediated DEVD-pNA cleavage at 1 uM after 6 hrs by colorimetric assay; format: functional, cell-based
[22] = test system: HL-60; experiment: Cytotoxicity against human HL60 cells after 4 hrs by MTT assay; format: functional, cell-based; settings: for IC50: HL-60, 4 h
[23] = test system: MOLT-3; experiment: Induction of apoptosis in human MOLT3 cells assessed as caspase 3/7-mediated DEVD-pNA cleavage at 1 uM after 6 hrs by colorimetric assay relative to control; format: functional
[24] = test system: U-937; experiment: Induction of apoptosis in human U937 cells assessed as procaspase-9 activation at 1 uM after 6 hrs by Western blot analysis; format: functional, cell-based
[25] = test system: U-937; experiment: Induction of apoptosis in human U937 cells assessed as procaspase-6 activation at 1 uM after 6 hrs by Western blot analysis; format: functional, cell-based
[26] = test system: HeLa; experiment: Cytotoxicity against human HeLa cells after 4 days by Coulter counter analysis; format: functional, cell-based; settings: 96 h
[27] = test system: HL-60; experiment: Induction of apoptosis in human HL60 cells assessed as procaspase-9 activation at 1 uM after 6 hrs by Western blot analysis; format: functional, cell-based
[28] = test system: U-937; experiment: Induction of apoptosis in human U937 cells assessed as procaspase-3 activation at 1 uM after 6 hrs by Western blot analysis; format: functional, cell-based
[29] = test system: HL-60; experiment: Induction of apoptosis in human HL60 cells assessed as appearance of apoptotic bodies at 1 uM after 6 hrs by Hoechst 33258 staining based fluorescence microscopy; format: functional, cell-based
[30] = test system: HL-60; experiment: Induction of apoptosis in human HL60 cells assessed as caspase 8-mediated IETD-pNA cleavage at 1 uM after 6 hrs by colorimetric assay; format: functional, cell-based
[31] = test system: HL-60; experiment: Induction of apoptosis in human HL60 cells assessed as chromatin condensation at 1 uM after 6 hrs by Hoechst 33258 staining based fluorescence microscopy; format: functional, cell-based
[32] = test system: HL-60; experiment: Induction of apoptosis in human HL60 cells assessed as procaspase-6 activation at 1 uM after 6 hrs by Western blot analysis; format: functional, cell-based
[33] = test system: MOLT-3; experiment: Induction of apoptosis in human MOLT3 cells assessed as caspase9-mediated LEHD-pNA cleavage at 1 uM after 6 hrs by colorimetric assay; format: functional, cell-based
[34] = test system: U-937; experiment: Induction of apoptosis in human U937 cells assessed as chromatin condensation at 1 uM after 6 hrs by Hoechst 33258 staining based fluorescence microscopy; format: functional, cell-based
[35] = test system: FM3A; experiment: Cytotoxicity against mouse FM3A cells after 2 days by Coulter counter analysis; format: functional, cell-based; settings: 48 h
[36] = test system: MOLT-3; experiment: Induction of apoptosis in human MOLT3 cells assessed as procaspase-8 activation at 1 uM after 6 hrs by Western blot analysis; format: functional, cell-based
[37] = test system: CCRF-CEM; experiment: Cytotoxicity against human CEM cells after 3 days by Coulter counter analysis; format: functional, cell-based; settings: 72 h
[38] = test system: HL-60; experiment: Induction of apoptosis in human HL60 cells assessed as cytochrome c release at 1 uM after 6 hrs by Western blot analysis; format: functional, cell-based
[39] = test system: U-937; experiment: Induction of apoptosis in human U937 cells assessed as cytochrome c release at 1 uM after 6 hrs by Western blot analysis; format: functional, cell-based
[40] = test system: HL-60; experiment: Induction of apoptosis in human HL60 cells assessed as procaspase-7 activation at 1 uM after 6 hrs by Western blot analysis; format: functional, cell-based
[41] = test system: MOLT-3; experiment: Induction of apoptosis in human MOLT3 cells assessed as procaspase-6 activation at 1 uM after 6 hrs by Western blot analysis; format: functional, cell-based
[42] = test system: U-937; experiment: Induction of apoptosis in human U937 cells assessed as caspase 3/7-mediated DEVD-pNA cleavage at 1 uM after 6 hrs by colorimetric assay relative to control; format: functional
[43] = test system: MOLT-3; experiment: Induction of apoptosis in human MOLT3 cells assessed as procaspase-3 activation at 1 uM after 6 hrs by Western blot analysis; format: functional, cell-based
[44] = test system: U-937; experiment: Induction of apoptosis in human U937 cells assessed as caspase 8-mediated IETD-pNA cleavage at 1 uM after 6 hrs by colorimetric assay; format: functional, cell-based
[45] = test system: MOLT-3; experiment: Induction of apoptosis in human MOLT3 cells assessed as caspase-3-mediated PARP hydrolysis at 1 uM after 6 hrs by Western blot analysis; format: functional, cell-based
[46] = test system: MOLT-3; experiment: Induction of apoptosis in human MOLT3 cells assessed as chromatin hydrolysis at 1 uM after 6 hrs by agarose gel electrophoresis; format: functional, cell-based
[47] = test system: U-937; experiment: Induction of apoptosis in human U937 cells assessed as procaspase-8 activation at 1 uM after 6 hrs by Western blot analysis; format: functional, cell-based
[48] = test system: MOLT-3; experiment: Cytotoxicity against human MOLT3 cells after 4 hrs by MTT assay; format: functional, cell-based; settings: for IC50: MOLT-3, 4 h
[49] = test system: HL-60; experiment: Induction of apoptosis in human HL60 cells assessed as caspase9-mediated LEHD-pNA cleavage at 1 uM after 6 hrs by colorimetric assay; format: functional, cell-based

C=C(Br)C(=O)Nc1cccc(/C=C2\SC(=O)N(Cc3ccc(C(F)(F)F)cc3)C2=O)c1
870 nM: IC50 [35]
>5: fold change (FC) [10]
450 nM: IC50 [22]
active: Activity [1] | Activity [2] | Activity [3] Dose-dependent effect | Activity [4] | Activity [5] | Activity [6] | Activity [7] | Activity [8] | Activity [9] | Activity [11] | Activity [13] | Activity [15] | Activity [16] | Activity [17] | Activity [18] | Activity [20] | Activity [21] | Activity [22] Dose-dependent effect | Activity [24] | Activity [25] | Activity [27] | Activity [28] | Activity [29] | Activity [30] | Activity [31] | Activity [32] | Activity [33] | Activity [34] | Activity [36] | Activity [38] | Activity [39] | Activity [40] | Activity [41] | Activity [43] | Activity [44] | Activity [45] | Activity [47] | Activity [48] Dose-dependent effect | Activity [49]
16: fold change (FC) [14]
720 nM: IC50 [19]
>10: fold change (FC) [42]
23: fold change (FC) [12]
>2: fold change (FC) [23]
920 nM: IC50 [37]
710 nM: IC50 [48]
820 nM: IC50 [26]
inactive: Activity [46]
500 nM: IC50 [3]

C=C(Br)C(=O)Nc1cccc(/C=C2\SC(=O)N(Cc3ccccc3)C2=O)c1
12: fold change (FC) [12]
>2: fold change (FC) [23]
510 nM: IC50 [37]
>5: fold change (FC) [10]
690 nM: IC50 [22]
810 nM: IC50 [35]
1400 nM: IC50 [26]
inactive: Activity [46]
active: Activity [1] | Activity [2] | Activity [3] Dose-dependent effect | Activity [4] | Activity [5] | Activity [6] | Activity [7] | Activity [8] | Activity [9] | Activity [11] | Activity [13] | Activity [15] | Activity [16] | Activity [17] | Activity [18] | Activity [20] | Activity [21] | Activity [22] Dose-dependent effect | Activity [24] | Activity [25] | Activity [27] | Activity [28] | Activity [29] | Activity [30] | Activity [31] | Activity [32] | Activity [33] | Activity [34] | Activity [36] | Activity [38] | Activity [39] | Activity [40] | Activity [41] | Activity [43] | Activity [44] | Activity [45] | Activity [47] | Activity [48] Dose-dependent effect | Activity [49]
380 nM: IC50 [19]
620 nM: IC50 [3]
6: fold change (FC) [14]
600 nM: IC50 [48]
>10: fold change (FC) [42]

C=C(Br)C(=O)Nc1cccc(/C=C2\SC(=O)N(Cc3ccc(F)cc3)C2=O)c1
920 nM: IC50 [35]
680 nM: IC50 [19] | IC50 [37]
active: Activity [1] | Activity [2] | Activity [3] Dose-dependent effect | Activity [4] | Activity [5] | Activity [6] | Activity [7] | Activity [8] | Activity [9] | Activity [11] | Activity [13] | Activity [15] | Activity [16] | Activity [17] | Activity [18] | Activity [20] | Activity [21] | Activity [22] Dose-dependent effect | Activity [24] | Activity [25] | Activity [27] | Activity [28] | Activity [29] | Activity [30] | Activity [31] | Activity [32] | Activity [33] | Activity [34] | Activity [36] | Activity [38] | Activity [39] | Activity [40] | Activity [41] | Activity [43] | Activity [44] | Activity [45] | Activity [47] | Activity [48] Dose-dependent effect | Activity [49]
>2: fold change (FC) [23]
530 nM: IC50 [3]
>10: fold change (FC) [42]
640 nM: IC50 [48]
4: fold change (FC) [14]
770 nM: IC50 [22]
800 nM: IC50 [26]
>5: fold change (FC) [10]
inactive: Activity [46]
12: fold change (FC) [12]
